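Each compound was tested at five concentrations against cells in 96-well plates for 48 hours. Abbreviation: GI50, concentration required for 50% inhibition of growth.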 Activity calls are given as the source filed them. Rule as the data show it: active = GI50 up to about 1.1 µM and inactive = higher.
Tests used:
Assay in all cases: NCI-60 cell line screen, 48 h
A549 = system: A549
ACHN = system: ACHN
CAKI-1 = system: CAKI-1
EKVX = system: EKVX
HOP-62 = system: HOP-62
IGROV-1 = system: IGROV-1
LOX IMVI = system: LOX IMVI
NCI-H460 = system: NCI-H460
OVCAR-4 = system: OVCAR-4
RPMI-8226 = system: RPMI-8226
SF-268 = system: SF-268
SR = system: SR
SW-620 = system: SW-620
NCI-H522 = system: NCI-H522
U-251 = system: U-251
DU-145 = system: DU-145

Structure (SMILES) | GI50 (A549) | GI50 (ACHN) | GI50 (CAKI-1) | GI50 (EKVX) | GI50 (HOP-62) | GI50 (IGROV-1) | GI50 (LOX IMVI) | GI50 (NCI-H460) | GI50 (OVCAR-4) | GI50 (RPMI-8226) | GI50 (SF-268) | GI50 (SR) | GI50 (SW-620) | GI50 (NCI-H522) | GI50 (U-251) | GI50 (DU-145)
C/C(CCn1[nH]c(=O)ccc1=O)=N\Nc1ccc([N+](=O)[O-])cc1[N+](=O)[O-] | > 100 µM (inactive) | 90.8 µM (inactive) | > 100 µM (inactive) | > 100 µM (inactive) | > 100 µM (inactive) | > 100 µM (inactive) | 26.8 µM (inactive) | 37 µM (inactive) | > 100 µM (inactive) | > 100 µM (inactive) | > 100 µM (inactive) | > 100 µM (inactive) | > 100 µM (inactive) |  |  | 
O=C1c2ccc3c4ccccc4n(-c4ccccc4)c3c2C(=O)N1c1ccc(Cl)cc1 | > 100 µM (inactive) | > 100 µM (inactive) | > 100 µM (inactive) | > 100 µM (inactive) | > 100 µM (inactive) | > 100 µM (inactive) | > 100 µM (inactive) | > 100 µM (inactive) | > 100 µM (inactive) |  | > 100 µM (inactive) | > 100 µM (inactive) | > 100 µM (inactive) | > 100 µM (inactive) | > 100 µM (inactive) | 
COC(=O)c1cc2c(nc1C)-c1ccccc1OS2(=O)=O | > 100 µM (inactive) | > 100 µM (inactive) | > 100 µM (inactive) | > 100 µM (inactive) | 27.5 µM (inactive) | > 100 µM (inactive) | > 100 µM (inactive) | > 100 µM (inactive) | > 100 µM (inactive) | > 100 µM (inactive) | 45.5 µM (inactive) | > 100 µM (inactive) | > 100 µM (inactive) | > 100 µM (inactive) | 70.1 µM (inactive) | 
CSc1nc2c(c(O)c(C)c(=O)n2C2OC(COC(C)=O)C(OC(C)=O)C(OC(C)=O)C2OC(C)=O)c(=O)n1C (stereo unspecified) | > 100 µM (inactive) | > 100 µM (inactive) | > 100 µM (inactive) | > 100 µM (inactive) | > 100 µM (inactive) | > 100 µM (inactive) | > 100 µM (inactive) | > 100 µM (inactive) | > 100 µM (inactive) | < 0.01 µM (active) | > 100 µM (inactive) |  | > 100 µM (inactive) | > 100 µM (inactive) | > 100 µM (inactive) | 
CN1CC(=O)N(C)c2[nH]cnc2C1=O | > 100 µM (inactive) | > 100 µM (inactive) |  | > 100 µM (inactive) |  | > 100 µM (inactive) | > 100 µM (inactive) | > 100 µM (inactive) | > 100 µM (inactive) | > 100 µM (inactive) | > 100 µM (inactive) | > 100 µM (inactive) | > 100 µM (inactive) |  | > 100 µM (inactive) | 
Cc1ccc(NC(=O)C2C3C=CC(O3)C2C(=O)O)cc1 (stereo unspecified) | > 100 µM (inactive) | > 100 µM (inactive) |  | > 100 µM (inactive) | > 100 µM (inactive) | > 100 µM (inactive) | 23.7 µM (inactive) | > 100 µM (inactive) | > 100 µM (inactive) | 24.3 µM (inactive) | > 100 µM (inactive) | > 100 µM (inactive) | 8.83 µM (inactive) | > 100 µM (inactive) | > 100 µM (inactive) | 
CC1(C)C(c2ccccc2)C12CCC1(C2=O)C(c2ccccc2)C1(C)C (stereo unspecified) | 26.4 µM (inactive) | 19.6 µM (inactive) | 23.1 µM (inactive) | 25.1 µM (inactive) | 26.1 µM (inactive) | 31.8 µM (inactive) | 20.2 µM (inactive) |  | 31.3 µM (inactive) | 14.3 µM (inactive) | 29.4 µM (inactive) |  | 21.7 µM (inactive) | 13.5 µM (inactive) | 17.8 µM (inactive) | 
O=C1c2cccc3cc([N+](=O)[O-])cc(c23)C(=O)N1NC1=NCCN1 | > 100 µM (inactive) | > 100 µM (inactive) | > 100 µM (inactive) | > 100 µM (inactive) | > 100 µM (inactive) | > 100 µM (inactive) | > 100 µM (inactive) | > 100 µM (inactive) | > 100 µM (inactive) | > 100 µM (inactive) | > 100 µM (inactive) | > 100 µM (inactive) | > 100 µM (inactive) | > 100 µM (inactive) | > 100 µM (inactive) | 
CCCCSN1C(=O)c2ccccc2C1=S | > 100 µM (inactive) | > 100 µM (inactive) | 32.6 µM (inactive) | > 100 µM (inactive) | > 100 µM (inactive) | > 100 µM (inactive) | 54.2 µM (inactive) | > 100 µM (inactive) | 76.6 µM (inactive) | 21 µM (inactive) | 48.9 µM (inactive) |  | 32.9 µM (inactive) | > 10 µM (inactive) | > 100 µM (inactive) | 
CN(C)c1ccc(Cc2cc(C(C)(C)C)cc(C(C)(C)C)c2O)cc1 | 19.8 µM (inactive) | 16.6 µM (inactive) | 19.1 µM (inactive) | 22.1 µM (inactive) | 20.9 µM (inactive) | 18 µM (inactive) | 10.6 µM (inactive) | 18.5 µM (inactive) | 21.3 µM (inactive) | 11.5 µM (inactive) | 17.3 µM (inactive) | 14.6 µM (inactive) | 16.9 µM (inactive) | 18.4 µM (inactive) | 15.2 µM (inactive) | 
c1ccc([B-]23Oc4ccccc4[NH+]2c2ccccc2O3)cc1 (stereo unspecified) | > 100 µM (inactive) | 75.7 µM (inactive) | > 100 µM (inactive) | > 100 µM (inactive) | > 100 µM (inactive) | > 100 µM (inactive) | 62.2 µM (inactive) |  | > 100 µM (inactive) | 23.9 µM (inactive) | > 100 µM (inactive) | 37 µM (inactive) | 33.2 µM (inactive) | 16.2 µM (inactive) | > 100 µM (inactive) | 
CC1(C)O[C@H]2[C@H](O)C[C@](O)(CO)C[C@H]2O1 | > 100 µM (inactive) | > 100 µM (inactive) | > 100 µM (inactive) | > 100 µM (inactive) |  | > 100 µM (inactive) |  | > 100 µM (inactive) | > 100 µM (inactive) | > 100 µM (inactive) |  | > 100 µM (inactive) | > 100 µM (inactive) | > 100 µM (inactive) | > 100 µM (inactive) | 
O=C1[C@@H](c2ccc(Cl)cc2)[C@H]2CC=C[C@H]2N1O | > 100 µM (inactive) |  | > 100 µM (inactive) | > 100 µM (inactive) | > 100 µM (inactive) | > 100 µM (inactive) | > 100 µM (inactive) |  |  | > 100 µM (inactive) | > 100 µM (inactive) |  | > 100 µM (inactive) | 71.1 µM (inactive) |  | 
CC(C)CC(=O)N1CCN(C(=O)CC(C)C)c2ccccc21 | > 100 µM (inactive) | > 100 µM (inactive) |  | > 100 µM (inactive) | > 100 µM (inactive) | > 100 µM (inactive) | > 100 µM (inactive) | > 100 µM (inactive) |  | > 100 µM (inactive) | > 100 µM (inactive) |  | > 100 µM (inactive) | > 100 µM (inactive) | > 100 µM (inactive) | 
ON=C1CCC(c2ccccc2)CC1 (stereo unspecified) | > 100 µM (inactive) | > 100 µM (inactive) | > 100 µM (inactive) | > 100 µM (inactive) | > 100 µM (inactive) | > 100 µM (inactive) | > 100 µM (inactive) | > 100 µM (inactive) | > 100 µM (inactive) |  | > 100 µM (inactive) |  | > 100 µM (inactive) | > 100 µM (inactive) | > 100 µM (inactive) | 
C=CCOCCCCC(C(C)=O)C(=O)OC (stereo unspecified) | > 100 µM (inactive) | > 100 µM (inactive) | > 100 µM (inactive) |  |  | > 100 µM (inactive) | > 100 µM (inactive) | > 100 µM (inactive) | > 100 µM (inactive) | > 100 µM (inactive) | > 100 µM (inactive) | > 100 µM (inactive) | > 100 µM (inactive) | > 100 µM (inactive) | > 100 µM (inactive) | > 100 µM (inactive)
CC1=C2C(c3ccccc3)(c3ccccc3)C3C=CC2(C=N3)N(C(=O)NC2CCCCC2)C1=O (stereo unspecified) | 16.9 µM (inactive) | 19.5 µM (inactive) | 12.6 µM (inactive) | 14.8 µM (inactive) | 17.5 µM (inactive) | 18.9 µM (inactive) | 15.7 µM (inactive) |  | 17.6 µM (inactive) | 15.9 µM (inactive) | 17.4 µM (inactive) | 17.1 µM (inactive) | 17.3 µM (inactive) |  | 16.6 µM (inactive) | 
C(=C\c1ccc2ccccc2c1Nc1ccccc1)/c1ccccc1 | 49.3 µM (inactive) | 20.6 µM (inactive) | 23.2 µM (inactive) | > 100 µM (inactive) | 20.1 µM (inactive) | 31 µM (inactive) | > 66.4 µM (inactive) | 27.9 µM (inactive) | 8.15 µM (inactive) | 25.1 µM (inactive) | 36.2 µM (inactive) | 15.2 µM (inactive) | 60.3 µM (inactive) | 41.6 µM (inactive) | 25.9 µM (inactive) | 
O=[N+]([O-])c1c(/C=N/c2ccccc2)oc(-c2ccc3c(c2)OCO3)c1-c1ccc2c(c1)OCO2 | > 100 µM (inactive) | > 100 µM (inactive) | > 100 µM (inactive) |  | > 100 µM (inactive) | > 100 µM (inactive) | > 100 µM (inactive) | > 100 µM (inactive) | > 100 µM (inactive) | > 100 µM (inactive) | > 100 µM (inactive) | > 100 µM (inactive) | > 100 µM (inactive) | > 100 µM (inactive) | > 100 µM (inactive) | 
CC(C)C(=O)Nc1nc2[nH]cnc2c(=O)[nH]1 | > 100 µM (inactive) | > 100 µM (inactive) | > 100 µM (inactive) | > 100 µM (inactive) | > 100 µM (inactive) | > 100 µM (inactive) | > 100 µM (inactive) | > 100 µM (inactive) | > 100 µM (inactive) | > 100 µM (inactive) | > 100 µM (inactive) | > 100 µM (inactive) | > 100 µM (inactive) | > 100 µM (inactive) | > 100 µM (inactive) | 
